# ChEMBL document CHEMBL5528008, “Design and synthesis of the first PARP-1 and proteasome dual inhibitors to treat breast cancer” (Eur J Med Chem, 2024)
# Calls of active or inactive are those of the source. The rule behind the calls is not given here.
# Experiments:
# [1] = molecular target: 20S proteasome; assay: Inhibition of 20S proteasome (unknown origin) using […] as substrate; format: protein-complex assay, Homo sapiens
# [2] = molecular target: T1, Poly [ADP-ribose] polymerase 1 (Homo sapiens, UniProt P09874); assay: Inhibition of PARP-1 (unknown origin) using Femto-ECL as substrate preincubated for 2.7 hrs followed by substrate addition by chemiluminescence assay
# [3] = tested on: BT-549; assay: Induction in cell cycle arrest in human BT-549 cells assessed as upregulation of p21 expression at 0.05 uM incubated for 48 hrs by Western blotting analysis; format: functional, cell-based
# [4] = molecular target: T1, Poly [ADP-ribose] polymerase 1; assay: Inhibition of PARP-1 in human BT-549 cells assessed as downregulation of BRCA1 mRNA expression incubated for 48 hrs by RT-qPCR analysis; format: cell-based
# [5] = tested on: BT-549; assay: Induction of DNA damage in human BT-549 cells assessed as increase in polyubiquitination at 0.125 uM incubated for 48 hrs by fluorescence confocal microscopic analysis; format: functional, cell-based
# [6] = tested on: BT-549; assay: Induction of DNA damage in human BT-549 cells assessed as upregulation of gamma-H2AX level at 0.5 uM incubated for 48 hrs by immunoblotting analysis; format: functional, cell-based
# [7] = tested on: BT-549; assay: Induction in cell cycle arrest in human BT-549 cells assessed as upregulation of p21 expression at 0.5 uM incubated for 48 hrs by Western blotting analysis; format: functional, cell-based
# [8] = tested on: BT-549; assay: Induction of apoptosis in human BT-549 cells assessed as upregulation of cleaved caspase-3 expression incubated for 48 hrs by Western blotting analysis; format: functional, cell-based
# [9] = molecular target: T1, Poly [ADP-ribose] polymerase 1; assay: Inhibition of PARP-1 in human BT-549 cells assessed as downregulation of RAD51 expression at 0.5 uM incubated for 48 hrs by immunoblotting analysis; format: cell-based
# [10] = tested on: BT-549; assay: Inhibition of colony formation in human BT-549 cells assessed as reduction in colony size incubated for 14 days by crystal violet staining based analysis; format: functional, cell-based; conditions: time 14.0 day
# [11] = tested on: BT-549; assay: Induction of DNA damage in human BT-549 cells assessed as decrease in BRCA1 localization in nucleus at 0.125 uM incubated for 48 hrs by fluorescence confocal microscopic analysis; format: functional, cell-based
# [12] = tested on: MDA-MB-231; assay: Cytotoxicity against human MDA-MB-231 cells assessed as inhibition of cell growth incubated for 72 hrs by MTT assay; format: functional, cell-based; conditions: MDA-MB-231, 72 h
# [13] = molecular target: T1, Poly [ADP-ribose] polymerase 1; assay: Inhibition of PARP-1 in human BT-549 cells assessed as downregulation of RAD51 mRNA expression incubated for 48 hrs by RT-qPCR analysis; format: cell-based
# [14] = molecular target: T1, Poly [ADP-ribose] polymerase 1; assay: Inhibition of PARP-1 in human BT-549 cells assessed as downregulation of FANCD2 mRNA expression incubated for 48 hrs by RT-qPCR analysis; format: cell-based
# [15] = tested on: BT-549; assay: Cytotoxicity against human BT-549 cells assessed as inhibition of cell growth incubated for 72 hrs by MTT assay; format: functional, cell-based; conditions: BT-549, 72 h
# [16] = tested on: BT-549; assay: Inhibition of colony formation in human BT-549 cells assessed as reduction in colony number incubated for 14 days by crystal violet staining based analysis; format: functional, cell-based; conditions: time 14.0 day
# [17] = molecular target: T1, Poly [ADP-ribose] polymerase 1; assay: Inhibition of PARP-1 in human BT-549 cells assessed as downregulation of RAD51 expression at 0.05 uM incubated for 48 hrs by immunoblotting analysis; format: cell-based
# [18] = tested on: BT-549; assay: Induction of apoptosis in human BT-549 cells assessed as upregulation of cleaved PARP expression incubated for 48 hrs by Western blotting analysis; format: functional, cell-based
# [19] = molecular target: T1, Poly [ADP-ribose] polymerase 1; assay: Inhibition of PARP-1 in human BT-549 cells assessed as downregulation of P-ATM expression at 0.05 uM incubated for 48 hrs by immunoblotting analysis; format: cell-based
# [20] = tested on: BT-549; assay: Induction in cell cycle arrest in human BT-549 cells assessed as downregulation of Cyclin A2 expression at 0.5 uM incubated for 48 hrs by Western blotting analysis; format: functional, cell-based
# [21] = molecular target: T1, Poly [ADP-ribose] polymerase 1; assay: Inhibition of PARP-1 in human BT-549 cells assessed as downregulation of P-ATM expression at 0.5 uM incubated for 48 hrs by immunoblotting analysis; format: cell-based
# [22] = tested on: MCF7; assay: Cytotoxicity against human MCF7 cells assessed as inhibition of cell growth incubated for 72 hrs by MTT assay; format: functional, cell-based; conditions: MCF7, 72 h
# [23] = molecular target: T1, Poly [ADP-ribose] polymerase 1; assay: Inhibition of PARP-1 in human BT-549 cells assessed as downregulation of BRCA1 expression at 0.05 uM incubated for 48 hrs by immunoblotting analysis; format: cell-based
# [24] = molecular target: T1, Poly [ADP-ribose] polymerase 1; assay: Inhibition of PARP-1 in human BT-549 cells assessed as downregulation of BRCA1 expression at 0.5 uM incubated for 48 hrs by immunoblotting analysis; format: cell-based
# [25] = tested on: BT-549; assay: Induction in cell cycle arrest in human BT-549 cells assessed as downregulation of CDK1 expression at 0.05 uM incubated for 48 hrs by Western blotting analysis; format: functional, cell-based
# [26] = tested on: BT-549; assay: Induction in cell cycle arrest in human BT-549 cells assessed as downregulation of CDK1 expression at 0.5 uM incubated for 48 hrs by Western blotting analysis; format: functional, cell-based
# [27] = tested on: BT-549; assay: Induction of DNA damage in human BT-549 cells assessed as increase in gamma-H2AX localization in nucleus at 0.125 uM incubated for 48 hrs by fluorescence confocal microscopic analysis; format: functional, cell-based
# [28] = tested on: BT-549; assay: Induction of apoptosis in human BT-549 cells assessed as increase in late apoptotic cells incubated for 48 hrs by Annexin V-FITC/PI staining based flow cytometric analysis; format: functional, cell-based
# [29] = tested on: BT-549; assay: Induction of apoptosis in human BT-549 cells assessed as increase in early apoptotic cells incubated for 48 hrs by Annexin V-FITC/PI staining based flow cytometric analysis; format: functional, cell-based
# [30] = tested on: BT-549; assay: Induction of DNA damage in human BT-549 cells assessed as decrease in ubiquitin localization in nucleus at 0.125 uM incubated for 48 hrs by fluorescence confocal microscopic analysis; format: functional, cell-based
# [31] = molecular target: T1, Poly [ADP-ribose] polymerase 1; assay: Inhibition of PARP-1 in human BT-549 cells assessed as downregulation of BRCA2 mRNA expression incubated for 48 hrs by RT-qPCR analysis; format: cell-based
# [32] = tested on: BT-549; assay: Induction in cell cycle arrest in human BT-549 cells assessed as downregulation of Cyclin A2 expression at 0.05 uM incubated for 48 hrs by Western blotting analysis; format: functional, cell-based
# [33] = tested on: BT-549; assay: Induction of DNA damage in human BT-549 cells assessed as decrease in polyubiquitination in nucleus at 0.125 uM incubated for 48 hrs by fluorescence confocal microscopic analysis; format: functional, cell-based
# [34] = tested on: BT-549; assay: Induction of DNA damage in human BT-549 cells assessed as upregulation of gamma-H2AX level at 0.05 uM incubated for 48 hrs by immunoblotting analysis; format: functional, cell-based
# T1 sequence (P09874 whole entry): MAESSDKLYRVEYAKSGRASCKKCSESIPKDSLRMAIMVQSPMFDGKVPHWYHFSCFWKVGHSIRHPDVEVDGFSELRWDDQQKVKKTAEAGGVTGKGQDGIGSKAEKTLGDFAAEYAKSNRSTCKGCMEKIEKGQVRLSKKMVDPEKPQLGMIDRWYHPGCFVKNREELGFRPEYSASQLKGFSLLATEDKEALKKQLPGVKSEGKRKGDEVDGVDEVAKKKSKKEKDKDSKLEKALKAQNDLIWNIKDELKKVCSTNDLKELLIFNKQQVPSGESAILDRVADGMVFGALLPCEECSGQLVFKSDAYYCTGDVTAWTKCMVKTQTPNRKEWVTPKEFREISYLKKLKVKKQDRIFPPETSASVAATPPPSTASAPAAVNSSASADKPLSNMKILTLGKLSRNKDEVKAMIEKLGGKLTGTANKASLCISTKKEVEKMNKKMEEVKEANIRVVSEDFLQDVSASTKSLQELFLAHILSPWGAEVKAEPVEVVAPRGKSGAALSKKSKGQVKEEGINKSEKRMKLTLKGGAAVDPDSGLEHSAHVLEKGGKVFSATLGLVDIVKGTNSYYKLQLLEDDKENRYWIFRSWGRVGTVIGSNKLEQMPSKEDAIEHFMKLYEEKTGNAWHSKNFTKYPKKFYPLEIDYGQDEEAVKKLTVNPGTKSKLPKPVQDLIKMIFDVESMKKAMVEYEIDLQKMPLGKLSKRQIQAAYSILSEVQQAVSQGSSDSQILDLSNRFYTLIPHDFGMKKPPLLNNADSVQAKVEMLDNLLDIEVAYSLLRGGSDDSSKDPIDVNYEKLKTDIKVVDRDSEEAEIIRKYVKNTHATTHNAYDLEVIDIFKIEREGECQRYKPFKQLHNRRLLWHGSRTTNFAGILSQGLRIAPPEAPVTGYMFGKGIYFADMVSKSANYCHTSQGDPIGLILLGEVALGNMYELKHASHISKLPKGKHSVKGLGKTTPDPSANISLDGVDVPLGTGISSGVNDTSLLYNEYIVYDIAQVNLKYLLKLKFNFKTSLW
compound,measurement,setting,value
CC(C)C[C@H](NC(=O)CNC(=O)c1cc(Cc2n[nH]c(=O)c3ccccc23)ccc1F)B(O)O,IC50,[1],386 nM
same,IC50,[2],4.1 nM
CSCC[C@H](NC(=O)c1cc(Cc2n[nH]c(=O)c3ccccc23)ccc1F)C(=O)N[C@@H](CC(C)C)B1O[C@@H]2C[C@@H]3C[C@@H](C3(C)C)[C@]2(C)O1,IC50,[1],82.3 nM
same,Activity,[3],Active
same,inhibition,[4],Dose-Dependent Effect
same,Activity,[5],Active
same,Activity,[6],Active
same,Activity,[7],Active
same,Activity,[8],Dose-Dependent Effect
same,inhibition,[9],Active
same,inhibition,[10],Dose-Dependent Effect
same,Activity,[11],Active
same,IC50,[2],102 nM
same,IC50,[12],67.6 nM
same,inhibition,[13],Dose-Dependent Effect
same,inhibition,[14],Dose-Dependent Effect
same,IC50,[15],12.4 nM
same,inhibition,[16],Dose-Dependent Effect
same,inhibition,[17],Active
same,Activity,[18],Dose-Dependent Effect
same,inhibition,[19],Active
same,Activity,[20],Active
same,inhibition,[21],Active
same,IC50,[22],60.1 nM
same,inhibition,[23],Active
same,inhibition,[24],Active
same,Activity,[25],Active
same,Activity,[26],Active
same,Activity,[27],Active
same,Activity,[28],Dose-Dependent Effect
same,Activity,[29],Dose-Dependent Effect
same,Activity,[30],Active
same,inhibition,[31],Dose-Dependent Effect
same,Activity,[32],Active
same,Activity,[33],Active
same,Activity,[34],Active
CC(C)C[C@H](NC(=O)[C@H](Cc1ccccc1)NC(=O)c1cc(Cc2n[nH]c(=O)c3ccccc23)ccc1F)B(O)O,IC50,[1],87.8 nM
same,IC50,[2],291 nM
COC[C@H](NC(=O)c1cc(Cc2n[nH]c(=O)c3ccccc23)ccc1F)C(=O)N[C@@H](CC(C)C)B1O[C@@H]2C[C@@H]3C[C@@H](C3(C)C)[C@]2(C)O1,IC50,[1],21.4 nM
same,IC50,[2],247 nM
same,IC50,[12],101 nM
same,IC50,[15],109 nM
same,IC50,[22],40.8 nM
Cc1c(Cc2ccc(F)c(C(=O)N[C@@H](Cc3ccccc3)C(=O)N[C@@H](CC(C)C)B3O[C@@H]4C[C@@H]5C[C@@H](C5(C)C)[C@]4(C)O3)c2)n[nH]c(=O)c1C,IC50,[2],> 1000 nM
CC(C)C[C@H](NC(=O)[C@H](Cc1ccccc1)NC(=O)c1cc(Cc2n[nH]c(=O)c3ccccc23)ccc1F)C(=O)[C@@]1(C)CO1,IC50,[1],1420 nM
CC(C)C[C@H](NC(=O)[C@H](Cc1c[nH]c2ccccc12)NC(=O)c1cc(Cc2n[nH]c(=O)c3ccccc23)ccc1F)B(O)O,IC50,[1],56.1 nM
same,IC50,[2],98 nM
CC(C)C[C@H](NC(=O)[C@H](Cc1c[nH]c2ccccc12)NC(=O)c1cc(Cc2n[nH]c(=O)c3ccccc23)ccc1F)C(=O)[C@@]1(C)CO1,IC50,[1],1060 nM
CC(C)C[C@H](NC(=O)[C@H](CCc1ccccc1)NC(=O)c1cc(Cc2n[nH]c(=O)c3ccccc23)ccc1F)B1O[C@@H]2C[C@@H]3C[C@@H](C3(C)C)[C@]2(C)O1,IC50,[1],34.5 nM
same,IC50,[2],100 nM
same,IC50,[12],29.5 nM
same,IC50,[15],294 nM
same,IC50,[22],14.6 nM
CC(C)C[C@H](NC(=O)CNC(=O)c1cc(Cc2n[nH]c(=O)c3ccccc23)ccc1F)C(=O)[C@@]1(C)CO1,IC50,[1],> 10000 nM
CC(C)C[C@H](NC(=O)[C@H](Cc1ccc(O)cc1)NC(=O)c1cc(Cc2n[nH]c(=O)c3ccccc23)ccc1F)B1O[C@@H]2C[C@@H]3C[C@@H](C3(C)C)[C@]2(C)O1,IC50,[1],47.6 nM
same,IC50,[2],116 nM
same,IC50,[12],328 nM
same,IC50,[15],348 nM
same,IC50,[22],980 nM
CC(C)C[C@H](NC(=O)[C@@H](NC(=O)c1cc(Cc2n[nH]c(=O)c3ccccc23)ccc1F)C(C)C)B1O[C@@H]2C[C@@H]3C[C@@H](C3(C)C)[C@]2(C)O1,IC50,[1],98.3 nM
same,IC50,[2],151 nM
same,IC50,[12],20.8 nM
same,IC50,[15],13.3 nM
same,IC50,[22],174 nM
